Patent US12466816B2, “Fused cyclic compound capable of degrading protein and use thereof” (Medshine Discovery Inc., priority 2019, dated 2025)

What was measured:
Format in all cases: cell-based
Wee1 = Wee1 (Homo sapiens, UniProt P30291); test: Detection of compounds that degrade Wee1 protein (Western blot); design: endogenous in cells; host or cells: MOLT-4, U87-MG; settings: MOLT-4 cells 10 μM 4 hours; U87-MG cells 1 μM 24 hours
Method: MOLT-4 cells were treated with 10 μM of the test compound for 4 hours and U87-MG cells were treated with 1 μM of the test compound for 24 hours, respectively. With GAPDH (Santa Cruz, sc-32233) as the internal reference protein, the protein level of Wee1 (Cell Signaling, 13084S) was detected using Western blot. Cells were collected, lysed with protein loading buffer (1M Tris-HCl, 10% SDS, 0.025% BPB), and denatured at 98° C. for 10 min before Western blot analysis. The main steps include: 1) Electrophoresis: The protein was separated by SDS-PAGE electrophoresis. During the electrophoresis, the voltage was adjusted to 80 v for about 30 min, and then the voltage was adjusted to 120 v until the bromophenol blue ran out of the gel. 2) Transfer to a membrane: the gel was stuck to a methanol-activated PVDF membrane using the method of wet transfer, and after the top and bottom layers were wrapped with filter paper, the membrane was placed into the gel holder cassette and fixed to the transfer tank, and transfer was performed at a constant current of 250 mA for 90 min; 3) Blocking: the PVDF membrane with trace protein was placed into the antibody incubation box, 5% skim milk was added to completely cover the PVDF membrane, and incubation was performed for 1 hour on a shaker at room temperature; 4) Incubation of the primary antibody: the primary antibody was prepared with 5% BSA (1:1000) and incubated overnight on a shaker at 4° C.; 5) Incubation of the secondary antibody: the membrane was washed thrice with TBST, the secondary antibody (prepared with 5% skim milk) was added (according to the species source of the primary antibody, different secondary antibodies with a dilution range of 1:3000-1:10000 were used), and incubation was performed on a shaker at room temperature for one hour; 5) Exposure: the membrane was washed thrice with TBST and the bands on the membrane were detected by chemiluminescence.

U87-MG cells = test: Drug synergism experiment with DNA damaging agents (CCK-8); settings: 10 μM WX106, low concentrations of agent, 72 hours
Method: U87-MG cells were treated with WX106 and DNA damaging agents, temozolomide, cisplatin, and gemcitabine for 72 hours, respectively, and the proliferation level of cells was detected by CCK-8. Among them, the WX106 concentration was 10 μM, and the DNA damaging agent concentrations were 0.1 μM, 1 μM and 10 μM, respectively.

CRBN = CRBN (Homo sapiens, UniProt Q96SW2); test: Protein degradation competition experiment (CC885-induced GSPT1 degradation); design: endogenous in cells; host or cells: MOLT-4; settings: MOLT-4 cells, co-treated with 10 nM CC885, 4 hours, Western blot
Method: MOLT-4 cells were co-treated with 0.1, 1 and 10 μM of WX106 and 10 nM of CC885 for 4 hours, and the protein level of GSPT1 was then detected by Western blot, with Poma (Pomalidomide, Selleck, S1567) acting as the positive control in the experiment. Cells were collected and denatured in protein loading buffer (50 mM Tris-HCL 2% SDS, 0.025% BPB, 1% β-mercaptoethanol, 10% glycerol) at 98° C. for 10 min. Proteins were separated by SDS-PAGE and transferred to a PVDF membrane (Millipore, IPVH00010), blocked with 5% skim milk (dissolved in TBST buffer), incubated with a primary antibody overnight at 4° C., and then incubated with a secondary antibody (Anti-rabbit IgG, HRP-linked Antibody, Cell Signaling, 7074S) at room temperature for 1 hour, and the bands on the membrane were detected by chemiluminescence (ECL chemiluminescence kit, Beyotime Biotechnology, P0018AM).

Hep3B cells = test: Cell growth competition experiment with Poma (CCK-8); settings: 1, 10 and 50 μM Poma with 10 μM WX106, 72 hours
Method: (§1) Principle: It is known that Poma is a compound that binds to CRBN, and Poma has no obvious inhibitory effect on adherent cells. If a compound depends on CRBN to inhibit cell growth, Poma's competitive binding to CRBN will definitely affect the cytotoxic effect of this compound. Cells were treated with 1, 10 and 50 μM of Poma and 10 μM of WX106 for 72 hours; cell viability was detected using the CCK-8 kit and cell survival rate was calculated [based on the formula], cell survival rate=[(As −Ab)/(Ac−Ab)]×100% (where As represents the absorbance of the experimental wells, Ac represents the absorbance of the control wells, and Ab represents the absorbance of the blank wells); finally, the effect of the competitive binding of Poma on the cytotoxicity of WX106 was calculated to determine whether the cytotoxicity of WX106 is dependent on CRBN. This step was applied to both SUN182 and Hep3B cells.

SNU182 = test: as above; settings: 1, 10 and 50 μM Poma with 10 μM WX106, 72 hours
Method: as §1
CC885 was the positive control in this experiment and is known to kill tumor cells in a CRBN-dependent manner.

Row | Compound | pro-degradation effect on Wee1 (Wee1) | also measured
1 | N.N.[Cl][Pt][Cl] [Cisplatin, cisplatin] |  | proliferation of U87-MG cells, DNA damaging agent at low concentrations in combination with WX106 (U87-MG cells): significantly inhibit the proliferation of U87-MG cells
2 | Nc1cccc2c1C(=O)N(C1CCC(=O)NC1=O)C2=O (stereo not shown) [Poma, Pomalidomide] |  | effect on degradation of GSPT1 induced by CC885 (CRBN): could inhibit the pro-degradation of GSPT1 by CC885; effect of Poma on the cytotoxicity caused by WX106 (Hep3B cells): capable of competitively inhibiting the cytotoxicity caused by WX106; effect of Poma on the cytotoxicity caused by WX106 (SNU182): capable of competitively inhibiting the cytotoxicity caused by WX106
3 | CCCC(=O)Nc1ccc2occ(C3CCC(=O)NC3=O)c2c1 (stereo not shown) [WX006] | pro-degradation effect on Wee1 | 
4 | Nc1ccn([C@@H]2O[C@H](CO)[C@@H](O)C2(F)F)c(=O)n1 [gemcitabine] |  | proliferation of U87-MG cells, DNA damaging agent at low concentrations in combination with WX106 (U87-MG cells): significantly inhibit the proliferation of U87-MG cells
5 | O=C1CCC(c2coc3ccc(NC(=O)c4ccnc(C(F)(F)F)c4)cc23)C(=O)N1 (stereo not shown) [WX002] | pro-degradation effect on Wee1 | 

Further lines, with some results ahead:

Row | pro-degradation effect on Wee1 (Wee1) | Compound | also measured
6 | pro-degradation effect on Wee1 | Cc1ccc(C(=O)Nc2ccc3occ(C4CCC(=O)NC4=O)c3c2)cc1 (stereo not shown) [WX003] | 
7 | pro-degradation effect on Wee1 | O=C1CCC(c2coc3ccc(NC(=O)c4ccccc4)cc23)C(=O)N1 (stereo not shown) [WX005] | 
8 | pro-degradation effect on Wee1 | O=C1CCC(c2coc3ccc(NC(=O)c4cccc(Cl)c4)cc23)C(=O)N1 (stereo not shown) [WX004] | 
